Test results from US20060193902A1, “Pharmaceutical compositions containing active agents having a lactone group and transition metal ions” (Celator Pharmaceuticals, Inc., priority 2003, published 2006).

Legend:
DNA = conditions: copper(II) complex, long-wave UV light; CuSO4 and drug 10 μM; cited from earlier work
[1] = 3 hours of incubation in human blood; cited from earlier work
[2] = Thin layer chromatography for ring closed lactone and ring open carboxylate forms of irinotecan (Example 5); assay type: physicochemical; conditions: HEPES buffered saline, acidic conditions, 30 minutes; lactone form
Method: Three sets of liposomal formulations of irinotecan were prepared as previously described. […] Any unencapsulated irinotecan was removed by column chromatography. […] The third formulation (B) contained irinotecan and floxuridine in the final composition. In this formulation the liposomes were prepared in the presence of floxuridine and then unencapsulated drug was removed by chromatography. […] In all cases the external pH was adjusted to match the internal liposomal pH prior to irinotecan loading.
Liposomal formulations of irinotecan were first analyzed for ring closed lactone and ring open carboxylate forms of the drug by thin layer chromatography. A set of standards were first prepared and used as a reference for the liposomal formulations. […] The TLC plates were dried overnight at room temperature and then run in a second solvent system composed of butanol:acetic acid:water:acetone (4:2:1:1). […] As the pH of the solution increased, the presence of the carboxylate band appears.
The plates were run in the same solvent systems and visualized by UV light.

[3] = Lactone/carboxy ratio of irinotecan in buffers with or without copper sulphate, by HPLC (Example 2); assay type: physicochemical; conditions: presence of CuSO4, pH 7.5

| irinotecan species seen by TLC in aqueous standards [2] | irinotecan remaining in the lactone form ([3]; 4 hours) | irinotecan present in the ring-closed, lactone form ([3]; 24 hours) | SMILES | DNA cleavage (DNA) | lactone ring present [1] |
| --- | --- | --- | --- | --- | --- |
|  |  |  | CC[C@@]1(O)C(=O)OCc2c1cc1n(c2=O)Cc2cc3cc(O)ccc3nc2-1 [10-hydroxycamptothecin] | 1.7% |  |
|  |  |  | CC[C@@]1(O)C(=O)OCc2c1cc1n(c2=O)Cc2cc3ccccc3nc2-1 [camptothecin] | 51% | 5% |
|  |  |  | CC[C@H]1C(=O)OCc2c1cc1n(c2=O)Cc2cc3ccccc3nc2-1 [20-deoxycamptothecin] | 28% |  |
| dominant species | 56.39% | 58.66% | CCc1c2c(nc3ccc(OC(=O)N4CCC(N5CCCCC5)CC4)cc13)-c1cc3c(c(=O)n1C2)COC(=O)[C@]3(O)CC [Irinotecan, irinotecan] |  |  |
